Measured values: patent US6900216B2, “Dihydroimidazo[2,1-b]thiazole and dihydro-5h-thiazolo[3,2-A]pyrimidines as antidepressant agents” (Knoll GmbH, priority 2000, dated 2005)
Like-named read-outs stand apart in the source and are kept apart here.

Experiments:
5-HT reuptake sites = target: T1, 5-HT reuptake sites (Rattus norvegicus, UniProt P31652); test: 5-HT uptake: displacement of [3H]citalopram from 5-HT reuptake sites, rat frontal cortical membranes; format: binding; settings: for inhibition at 1 µM: 10^−6 M test compound, single determination, [3H]citalopram; for Ki: [3H]citalopram 1.3 nM, rat frontal cortical membranes, fit to data from three experiments
T1 construct: Frontal cortical tissue from the brains of male Charles River rats; from tissue; host or cells: rat frontal cortical membranes
T1 sequence (P31652 whole entry): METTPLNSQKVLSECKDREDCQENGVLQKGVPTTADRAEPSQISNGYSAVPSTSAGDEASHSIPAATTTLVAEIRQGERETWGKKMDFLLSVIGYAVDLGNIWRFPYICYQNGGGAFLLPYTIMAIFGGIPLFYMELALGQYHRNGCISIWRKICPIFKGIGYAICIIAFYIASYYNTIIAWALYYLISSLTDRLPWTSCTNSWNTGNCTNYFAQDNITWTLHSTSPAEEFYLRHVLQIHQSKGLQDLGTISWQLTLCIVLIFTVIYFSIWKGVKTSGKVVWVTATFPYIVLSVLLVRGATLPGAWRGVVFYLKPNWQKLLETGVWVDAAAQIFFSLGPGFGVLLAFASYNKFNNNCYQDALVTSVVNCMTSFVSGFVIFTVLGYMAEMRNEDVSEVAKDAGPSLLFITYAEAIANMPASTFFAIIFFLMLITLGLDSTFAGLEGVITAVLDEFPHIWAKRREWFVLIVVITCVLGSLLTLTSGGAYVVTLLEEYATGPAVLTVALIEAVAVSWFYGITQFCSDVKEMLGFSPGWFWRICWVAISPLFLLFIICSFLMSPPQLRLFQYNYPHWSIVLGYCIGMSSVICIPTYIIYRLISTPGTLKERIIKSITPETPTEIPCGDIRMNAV
Experimental: Frontal cortical tissue from the brains of male Charles River rats weighing 150-250 g was homogenised in ice-cold 50 mM Tris-HCl, pH 7.4 (when measured at 25° C.) containing 120 mM sodium chloride and 5 mM potassium chloride (Tris buffer; 1:30 w/v) and centrifuged at 40,000 g for 10 minutes. The supernatant was discarded and the pellet rehomogenised in Tris buffer, 1:60 w/v, and centrifuged at 40,000 g for 10 minutes. This step was repeated a further time. The final pellet was resuspended in 50 mM Tris-HCl, pH 7.4 containing 120 mM sodium chloride and 5 mM potassium chloride (equivalent to 3.125 mg wet weight of tissue/ml) and used immediately in the binding assay. All centrifugations were performed at 4° C.
Membranes (400 μl; equivalent to 1.25 mg wet weight of tissue/tube) were incubated with 50 μl [^3H]citalopram at a single concentration of 1.3 nM and 50 μl of distilled water (total binding) or 50 μl of test compound (at a single concentration of 10^−6 M or at 10 concentrations ranging from 10^−11-10^−3 M) or 50 μl of paroxetine (0.5 μM; non-specific binding) for 1 h at 27° C. Membrane bound radioactivity was recovered by filtration under vacuum through Skatron 11734 filters presoaked in 0.5% PEI using a Skatron Cell Harvester. Filters were then washed in ice-cold 50 mM Tris-HCl buffer, pH 7.4 (at 25° C., wash setting 9,9,0). The scored filter paper discs were punched out into vials, scintillation fluid added and radioactivity determined by liquid scintillation counting.
(§1) For each of these tests measuring the ability of compounds of Formula I to displace standard ligands from 5-HT1A receptors and 5-hydroxytryptamine (5-HT) and noradrenaline (NA) reuptake sites and muscarinic receptors in vitro, the percentage displacement of specific binding of tritiated ligand by 10^−6 M test compound was calculated in the following way.
(§2) Firstly, specific binding of tritiated ligand in the absence (A) and presence (B) of test compound was determined:
(§3) In the absence of compound: A(dpm)=Total binding (dpm)−Non-specific binding (dpm) In the presence of compound (10^−6 M): B(dpm)=Binding at 10^−6M (dpm)−Non-specific binding (dpm)
(§4) The specific binding of tritiated ligand in the presence (B) of compound was then converted to a percentage of specific binding of tritiated ligand in the absence (A) of compound: % Specific binding at 10^−6 M=B(dpm)/A(dpm)×100
(§5) The percentage displacement of specific binding of tritiated ligand by the test compound (10^−6 M) was then obtained by subtraction of the percentage specific binding in the presence of compound from the percentage specific binding in the absence of compound, which is taken as the maximum binding and so equals 100%:
(§6) % Displacement at 10^−6 M=100−% Specific binding at 10^−6 M.
(§7) In some cases, displacement curves were then produced for compounds which displaced ≧50% of specific binding of the tritiated ligand at 10^−6 M using a range of concentrations of the compound. The Ki was then calculated by simultaneous fitting using equations derived from the Feldman equations by robust non-linear regression to data from three experiments simultaneously (De Lean et al., 1978; Munson and Rodbard, 1980; Feldman, 1992). Munson P J and Rodbard D. Ligand: a versatile computerised approach for characterisation of ligand binding systems. Anal Biochem 1980; 107: 220. Feldman HA. Mathematical theory of complex ligand binding systems at equilibrium: some methods for parameter fitting. Anal Biochem 1992: 48, 317. De Lean A, Munson P J and Rodbard D. Simultaneous analysis of families of sigmoidal curves: application to bioassay, radioligand assay, and physiological dose-response curves. Am J Physiol 1978: 235 (2), E97-E102.
The results obtained in the above tests for 5-HT1A binding and 5-HT and NA uptake and muscarinic binding for the final products of Examples 1-39 hereinafter are given in Table 1 below. Kis are in nM. % Figures are for % displacement at 10^−6 M for a single determination.

[1] = target: T2, noradrenaline (NA) reuptake sites (Rattus norvegicus, UniProt Q63380); test: NA uptake: displacement of [3H]nisoxetine from noradrenaline reuptake sites, rat frontal cortical membranes; format: binding; settings: for inhibition at 1 µM: read-out: NA uptake % displacement at 10^−6 M; for Ki: [3H]nisoxetine 0.6 nM, rat frontal cortical membranes, fit to data from three experiments
T2 construct: Frontal cortical tissue from the brains of male Charles River rats; from tissue; host or cells: rat frontal cortical membranes
T2 sequence (Q63380 1-617): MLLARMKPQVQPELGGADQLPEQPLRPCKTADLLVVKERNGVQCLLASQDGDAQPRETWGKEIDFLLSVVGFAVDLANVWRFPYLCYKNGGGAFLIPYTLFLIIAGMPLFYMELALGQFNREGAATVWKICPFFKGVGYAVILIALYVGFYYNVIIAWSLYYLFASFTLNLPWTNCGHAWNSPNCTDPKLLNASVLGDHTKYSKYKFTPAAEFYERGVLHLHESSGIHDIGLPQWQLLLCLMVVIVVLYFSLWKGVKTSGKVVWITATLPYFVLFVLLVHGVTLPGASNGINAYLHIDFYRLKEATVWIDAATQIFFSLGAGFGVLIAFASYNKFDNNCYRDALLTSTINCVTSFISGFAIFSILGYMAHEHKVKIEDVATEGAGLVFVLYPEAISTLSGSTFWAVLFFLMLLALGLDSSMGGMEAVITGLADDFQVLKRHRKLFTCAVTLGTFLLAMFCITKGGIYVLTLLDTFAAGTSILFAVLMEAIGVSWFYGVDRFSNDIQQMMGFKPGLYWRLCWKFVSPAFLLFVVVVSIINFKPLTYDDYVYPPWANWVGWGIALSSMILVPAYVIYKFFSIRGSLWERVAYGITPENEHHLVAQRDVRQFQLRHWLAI
Experimental: Frontal cortical tissue from the brains of male Charles River rats weighing 150-250 g was homogenised in ice-cold 50 mM Tris-HCl, pH 7.4 (at 25° C.) containing 120 mM sodium chloride and 5 mM potassium chloride (Tris buffer; 1:60 w/v) using a Kinematic polytron (speed setting 6 for 10 seconds) and centrifuged at 40,000 g for 10 minutes. The supernatant was discarded and the pellet rehomogenised in Tris buffer, 1:60 w/v, and centrifuged at 40,000 g for 10 minutes. This step was repeated twice more so that, in total, the brain tissue was homogenised and centrifuged four times. The final pellet was resuspended in 50 mM Tris-HCl, pH 7.4 containing 300 mM sodium chloride and 5 mM potassium chloride (equivalent to 18.75 mg wet weight of tissue/ml) and used immediately in the binding assay. All centrifugations were performed at 4° C.
Membranes (400 μl; equivalent to 7.5 mg wet weight of tissue/tube) were incubated with 50 μl [^3H]nisoxetine at a single concentration of 0.6 nM and 50 μl of distilled water (total binding) or 50 μl^− of test compound (at a single concentration 10^−6M or at 10 concentrations ranging from 10^−11-10^−3 M) or 50 μl of mazindol (1 μM; non-specific binding) for 4 h at 4° C. Membrane bound radioactivity was recovered by filtration under vacuum through Skatron 11734 filters using a Skatron cell harvester. Filters were rapidly washed with ice-cold 50 mM Tris-HCl, pH 7.4 containing 120 mM sodium chloride and 5 mM potassium chloride (wash setting 9,9,0). The scored filter paper discs were punched out into vials, scintillation fluid added and radioactivity determined by liquid scintillation counting.
as §1, §2, §3, §4, §5, §6
as §7, with “E97-E102. […]” for “E97-E102.”

Row | SMILES | melting point | inhibition at 1 µM (5-HT reuptake sites) [%] | inhibition at 1 µM [1] [%] | Ki (5-HT reuptake sites) [nM] | Ki [1] [nM] | inhibition at 1 µM ([1]; 10^−6 M test compound, single determination, [3H]nisoxetine) [%]
1 | Br.Clc1cccc2sc(C3=CSC4=NCCN34)cc12 [Example 1, 3-(4-chlorobenzo[b]thiophen-2-yl)-5,6-dihydroimidazo[2,1-b]thiazole hydrobromide] | 273 to 274 °C | 97 | 103 | – | – | –
2 | C1=C(c2cccc3sccc23)N2CCN=C2S1.Cl [Example 2, 3-(benzo[b]thiophen-4-yl)-5,6-dihydroimidazo[2,1-b]thiazole hydrochloride] | 246 to 249 °C | – | – | 45 | 9.1 | –
3 | OCC1=C(c2cccc3sccc23)N2CCN=C2S1 [Example 3, [3-(benzo[b]thiophen-4-yl)-5,6-dihydroimidazo[2,1-b]thiazol-2-yl]methanol] | 145 to 149 °C | – | – | 175 | 2.9 | –
4 | OCC1=C(c2cc3c(Cl)cccc3s2)N2CCN=C2S1 [Example 4, [3-(4-chlorobenzo[b]thiophen-2-yl)-5,6-dihydroimidazo[2,1-b]thiazol-2-yl]methanol] | 170 to 172 °C | – | – | 36 | 25 | –
5 | Cl.Fc1cccc2sc(C3=CSC4=NCCN34)cc12 [Example 5, 3-(4-fluorobenzo[b]thiophen-2-yl)-5,6-dihydroimidazo[2,1-b]thiazole hydrochloride] | 220 to 224 °C | 95 | 100 | – | – | –
6 | Br.CC1=C(c2cc3ccccc3s2)N2CCN=C2S1 [Example 6, 3-(benzo[b]thiophen-2-yl)-2-methyl-5,6-dihydroimidazo[2,1-b]thiazole hydrobromide] | 257 to 259 °C (dec.) | – | – | 44.4 | 21 | –
7 | Br.CC1=C(c2cc3c(F)cccc3s2)N2CCN=C2S1 [Example 7, 3-(4-fluorobenzo[b]thiophen-2-yl)-2-methyl-5,6-dihydroimidazo[2,1-b]thiazole hydrobromide] | 224 to 226 °C | – | – | 127 | 9.5 | –
8 | Br.CC1=C(c2cccc3sccc23)N2CCN=C2S1 [Example 8, 3-(benzo[b]thiophen-4-yl)-2-methyl-5,6-dihydroimidazo[2,1-b]thiazole hydrobromide] | – | – | – | 275 | 6.1 | –
9 | CC1=C(c2cccc3sccc23)N2CCN=C2S1.Cl [Example 9, 3-(benzo[b]thiophen-4-yl)-2-methyl-5,6-dihydroimidazo[2,1-b]thiazole hydrochloride] | – | – | – | 387 | 5.9 | –
10 | Br.CC1=C(c2cc3c(Cl)cccc3s2)N2CCN=C2S1 [Example 10, 3-(4-chlorobenzo[b]thiophen-2-yl)-2-methyl-5,6-dihydroimidazo[2,1-b]thiazole hydrobromide] | 246 to 248 °C | – | – | 29.3 | 69.5 | –
11 | Br.CCC1=C(c2cc3cc(Cl)ccc3s2)N2CCN=C2S1 [Example 11, 3-(5-chlorobenzo[b]thiophen-2-yl)-2-ethyl-5,6-dihydroimidazo[2,1-b]thiazole hydrobromide] | 282 to 284 °C | 97 | 92 | – | – | –
12 | Br.Oc1cccc2sc(C3=CSC4=NCCN34)cc12 [Example 12, 2-(5,6-dihydroimidazo[2,1-b]thiazol-3-yl)benzo[b]thiophen-4-ol hydrobromide] | – | – | – | 16 | 5.8 | –
13 | Br.CCC1=C(c2cccc3sccc23)N2CCN=C2S1 [Example 13, 3-(benzo[b]thiophen-4-yl)-2-ethyl-5,6-dihydroimidazo[2,1-b]thiazole hydrobromide] | 144 to 146 °C | – | – | 84 | 3.6 | –
14 | Cc1cccc2sc(C3=CSC4=NCCN34)cc12.Cl [Example 14, 3-(4-methylbenzo[b]thiophen-2-yl)-5,6-dihydroimidazo[2,1-b]thiazole hydrochloride] | 238 to 245 °C | 96 | 87 | – | – | –
15 | OCC1=C(c2cc3ccccc3s2)N2CCN=C2S1 [Example 15, [3-(benzo[b]thiophen-2-yl)-5,6-dihydroimidazo[2,1-b]thiazol-2-yl]methanol] | 138 to 140 °C | 75 | – | – | 18 | –
16 | Br.CC1=C(c2cc3c(C)cccc3s2)N2CCN=C2S1 [Example 16, 2-methyl-3-(4-methylbenzo[b]thiophen-2-yl)-5,6-dihydroimidazo[2,1-b]thiazole hydrobromide] | 201 to 204 °C | 93 | 83 | – | – | –
17 | Br.CC1(c2cc3cc(F)ccc3s2)CSC2=NCCN21 (stereo not drawn) [Example 27, 3-(5-fluorobenzo[b]thiophen-2-yl)-3-methyl-5,6-dihydroimidazo[2,1-b]thiazole hydrobromide] | – | 85 | 72 | – | – | –
18 | CC(C)C1=C(c2ccc3sccc3c2)N2CCN=C2S1 [Example 29, 3-(benzo[b]thiophen-5-yl)-2-(1-methylethyl)-5,6-dihydroimidazo[2,1-b]-thiazole] | – | – | – | 4.1 | 3.7 | –
19 | CSC1=C(c2ccc3sccc3c2)N2CCN=C2S1 [Example 30, 3-(benzo[b]thiophen-5-yl)-2-(methylthio)-5,6-dihydroimidazo[2,1-b]thiazole] | – | 95 | – | – | – | 101
